This is an account of results in US10221173B2, “Chemical compounds” (AstraZeneca AB, priority 2017, dated 2019).

SMILES strings stand for the structures. Converted amounts (≈) assume the structure as drawn. Where only a bound is given, the exact number is not on record here.

Data set [1] addresses recombinant human Estrogen Receptor alpha ligand binding domain (ER alpha-LBD (GST)) (Homo sapiens (Human), UniProt P03372). Description: ERα binding assay (LanthaScreen TR-FRET competition).
For data set [2], the target named is Estrogen Receptor (ERα) in MCF-7 cells (Homo sapiens (Human), UniProt P03372). The experiment in a line: MCF-7 ER down-regulation assay (immuno-fluorescence). To be noted: for % downregulation (in brackets): maximum downregulation. It counts as cell-based.
Data set [3] can be described thus: Log D (shake flask, 1-octanol/aqueous buffer). It counts as physicochemical.
Data set [4] can be described thus: Thermodynamic solubility (shake-flask). It counts as physicochemical. The conditions noted are these: thermodynamic from solid, phosphate buffer pH 7.4, 24 hours.
Data set [5] is described as follows: Human plasma protein binding (equilibrium dialysis). It counts as in vitro ADME.
The target in data set [6] is hERG potassium channel (Homo sapiens (Human), UniProt Q12809).
Experimental: The assay was conducted as follows with all reagents used at room temperature unless otherwise stated.
All compounds were acoustically dispensed in quadruplicate using a Labcyte Echo.
Calculation of results is performed using APC package within Genedata. For the routine normalization of well data with Neutral and Inhibitor control well groups as reference, GeneData Assay Analyzer uses the following equation to normalize the signal values to the desired signal range:
[formula] x is the measured raw signal value of a well is the median of the measured signal values for the Central Reference (Neutral) wells on a plate is the median of the measured signal values for the Scale Reference (Inhibitor) wells on a plate CR is the desired median normalized value for the Central Reference (Neutral) SR is the desired median normalized value for the Scale Reference (Inhibitor)
Setting [7] is: 1-octanol/aqueous buffer, pH 7.4, pH 7.4.
Setting [8] is: aqueous phosphate buffer, 25 °C, pH 7.4, aqueous buffer.

Sequence of hERG potassium channel (Q12809 whole entry): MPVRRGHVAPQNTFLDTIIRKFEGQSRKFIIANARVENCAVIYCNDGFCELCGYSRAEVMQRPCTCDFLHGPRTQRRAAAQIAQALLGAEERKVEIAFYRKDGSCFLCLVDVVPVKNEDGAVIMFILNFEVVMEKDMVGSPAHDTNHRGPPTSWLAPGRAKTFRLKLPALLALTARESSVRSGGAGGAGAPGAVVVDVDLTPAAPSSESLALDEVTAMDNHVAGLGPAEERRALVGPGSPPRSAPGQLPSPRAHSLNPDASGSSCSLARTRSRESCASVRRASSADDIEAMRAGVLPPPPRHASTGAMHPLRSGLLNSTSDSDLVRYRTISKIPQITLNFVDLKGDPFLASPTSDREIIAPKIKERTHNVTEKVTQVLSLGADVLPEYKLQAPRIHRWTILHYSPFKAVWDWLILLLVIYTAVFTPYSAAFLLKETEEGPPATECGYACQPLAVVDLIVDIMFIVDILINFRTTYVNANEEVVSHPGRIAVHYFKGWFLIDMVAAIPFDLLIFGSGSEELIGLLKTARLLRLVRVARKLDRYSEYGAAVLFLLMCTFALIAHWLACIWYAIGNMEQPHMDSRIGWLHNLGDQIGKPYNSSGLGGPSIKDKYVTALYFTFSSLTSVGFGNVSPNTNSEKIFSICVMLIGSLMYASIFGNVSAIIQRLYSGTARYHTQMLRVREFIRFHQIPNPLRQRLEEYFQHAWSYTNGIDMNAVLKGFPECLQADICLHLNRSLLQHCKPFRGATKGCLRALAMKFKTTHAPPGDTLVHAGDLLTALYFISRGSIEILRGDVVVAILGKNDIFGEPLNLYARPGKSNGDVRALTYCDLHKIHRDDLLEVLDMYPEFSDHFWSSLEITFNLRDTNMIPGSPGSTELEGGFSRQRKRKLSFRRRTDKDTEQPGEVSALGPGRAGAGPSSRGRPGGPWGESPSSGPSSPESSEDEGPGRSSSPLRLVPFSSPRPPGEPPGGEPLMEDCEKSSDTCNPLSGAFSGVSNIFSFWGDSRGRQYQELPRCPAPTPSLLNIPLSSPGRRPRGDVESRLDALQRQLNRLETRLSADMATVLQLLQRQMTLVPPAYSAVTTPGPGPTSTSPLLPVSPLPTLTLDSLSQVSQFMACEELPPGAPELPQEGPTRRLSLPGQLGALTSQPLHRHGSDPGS
Sequence of recombinant human Estrogen Receptor alpha ligand binding domain (ER alpha-LBD (GST)) (P03372 307-554): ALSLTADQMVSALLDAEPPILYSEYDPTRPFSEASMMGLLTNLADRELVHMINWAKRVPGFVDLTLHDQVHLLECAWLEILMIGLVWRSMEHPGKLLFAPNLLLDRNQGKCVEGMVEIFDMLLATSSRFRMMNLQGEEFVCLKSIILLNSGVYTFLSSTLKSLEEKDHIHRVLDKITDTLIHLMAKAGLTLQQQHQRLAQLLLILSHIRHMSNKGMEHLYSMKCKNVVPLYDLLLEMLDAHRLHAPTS
Sequence of Estrogen Receptor (ERα) in MCF-7 cells (P03372 whole entry): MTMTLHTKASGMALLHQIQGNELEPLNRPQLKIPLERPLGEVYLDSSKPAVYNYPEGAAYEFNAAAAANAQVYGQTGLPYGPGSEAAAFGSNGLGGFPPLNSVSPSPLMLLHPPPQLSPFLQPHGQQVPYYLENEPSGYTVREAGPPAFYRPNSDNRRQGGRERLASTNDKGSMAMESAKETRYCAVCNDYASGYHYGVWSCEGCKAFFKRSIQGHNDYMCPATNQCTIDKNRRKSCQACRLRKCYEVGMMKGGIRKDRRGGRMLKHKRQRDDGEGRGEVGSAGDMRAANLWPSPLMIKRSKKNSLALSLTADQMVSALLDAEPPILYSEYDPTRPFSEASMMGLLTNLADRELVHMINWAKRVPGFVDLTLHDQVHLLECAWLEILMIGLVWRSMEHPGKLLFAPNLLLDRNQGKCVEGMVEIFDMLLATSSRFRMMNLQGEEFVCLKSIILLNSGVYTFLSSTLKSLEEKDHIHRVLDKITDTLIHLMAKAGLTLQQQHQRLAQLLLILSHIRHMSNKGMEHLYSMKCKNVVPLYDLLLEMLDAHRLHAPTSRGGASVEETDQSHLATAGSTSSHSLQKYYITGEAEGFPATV

For `COc1ncc(NCCNCCCF)cc1[C@@H]1c2[nH]c3ccccc3c2C[C@@H](C)N1CC(F)(F)F` [Example 41, N1-(3-fluoropropyl)-N2-(6-methoxy-5-((1R,3R)-3-methyl-2-(2,2,2-trifluoroethyl)-2,3,4,9-tetrahydro-1H-pyrido[3,4-b]indol-1-yl)pyridin-3-yl)ethane-1,2-diamine], the IC50 was 12 nM in data set [1], 6 nM in data set [2] and 4900 nM in data set [6]. The compound also registered a logD in data set [3] (setting [7]) of 2.9. Moreover, the solubility at 24 h in data set [4] (setting [8]) was found to be 242 µM (≈ 119 µg/mL). Moreover, the “Human plasma protein binding (% free)” value in data set [5] was determined as 1.8 % free.

Consider `COc1ccc(NCCNCCCF)nc1[C@@H]1c2[nH]c3ccccc3c2C[C@@H](C)N1CC(F)(F)F` [Example 43, N1-(3-fluoropropyl)-N2-(5-methoxy-6-((1S,3R)-3-methyl-2-(2,2,2-trifluoroethyl)-2,3,4,9-tetrahydro-1H-pyrido[3,4-b]indol-1-yl)pyridin-2-yl)ethane-1,2-diamine], for which the values for the 50% inhibitory concentration (IC50) in data set [1], in data set [2] and in data set [6] were 82 nM, 220 nM and 3100 nM, respectively. Moreover, the logD in data set [3] (setting [7]) is 2.2. The solubility at 24 h in data set [4] (setting [8]) worked out at 358 µM (≈ 177 µg/mL). The “Human plasma protein binding (% free)” value in data set [5] was 2.8 % free.

As to `COc1ccc(O[C@H](C)CNCCCF)cc1[C@@H]1c2[nH]c3ccccc3c2C[C@@H](C)N1CC(F)(F)CO` [Example 47, 2,2-difluoro-3-((1R,3R)-1-(5-(((R)-1-((3-fluoropropyl)amino)propan-2-yl)oxy)-2-methoxyphenyl)-3-methyl-1,3,4,9-tetrahydro-2H-pyrido[3,4-b]indol-2-yl)propan-1-ol], the half-inhibitory concentration (IC50) stood at 2.5 nM in data set [1], 11 nM in data set [2] and 3200 nM in data set [6]. Moreover, in data set [2], the “% downregulation (in brackets)” value turned out to be 81%. The compound further had a logD in data set [3] (setting [7]) of 2.7. The compound also displayed a solubility at 24 h in data set [4] (setting [8]) of 488 µM (≈ 254 µg/mL). Also, the “Human plasma protein binding (% free)” value in data set [5] was found to be 6.1 % free.

In the case of `COc1ccc(OCCNCCCF)cc1[C@@H]1c2[nH]c3ccccc3c2C[C@@H](C)N1C[C@H](C)C(=O)O` [Example 53, (S)-3-((1R,3R)-1-(5-(2-((3-fluoropropyl)amino)ethoxy)-2-methoxyphenyl)-3-methyl-1,3,4,9-tetrahydro-2H-pyrido[3,4-b]indol-2-yl)-2-methylpropanoic acid], the concentration for half-maximal inhibition (IC50) is 150 nM in data set [1] and greater than 40000 nM in data set [6]. The “% downregulation (in brackets)” value in data set [2] is reported as “— (40%)”. In data set [3] (setting [7]), this compound had a pH-dependent lipophilicity (logD) of 0.1. In data set [4] (setting [8]), this compound came in with a solubility at 24 h greater than 1000 µM. For the same compound, the “Human plasma protein binding (% free)” value in data set [5] is listed as 80 % free.

On to `C[C@@H]1Cc2c([nH]c3ccccc23)[C@@H](c2c(Cl)ccc(OCCNCCCF)c2F)N1C[C@H](C)C(=O)O` [Example 54, (S)-3-((1R,3R)-1-(6-chloro-2-fluoro-3-(2-((3-fluoropropyl)amino)ethoxy)phenyl)-3-methyl-1,3,4,9-tetrahydro-2H-pyrido[3,4-b]indol-2-yl)-2-methylpropanoic acid], for which the half-maximal inhibitory concentration (IC50) in data set [1] is 5.9 nM; in data set [2], 1 nM; in data set [6], greater than 40000 nM. Besides, the pH-dependent lipophilicity (logD) in data set [3] (setting [7]) was 0.9. This compound showed a solubility at 24 h in data set [4] (setting [8]) greater than 1000 µM. The “Human plasma protein binding (% free)” value in data set [5] is 18 % free.

As for `Cc1ccc2[nH]c3c(c2c1)C[C@@H](C)N(CC(F)(F)CO)[C@@H]3c1c(F)cnc(OCCNCCCF)c1F` [Example 66, 3-((1R,3R)-1-(3,5-difluoro-2-(2-((3-fluoropropyl)amino)ethoxy)pyridin-4-yl)-3,6-dimethyl-1,3,4,9-tetrahydro-2H-pyrido[3,4-b]indol-2-yl)-2,2-difluoropropan-1-ol], the 50% inhibitory concentration (IC50) in data set [1] amounted to 0.71 nM; in data set [2], 0.34 nM; in data set [6], 5400 nM. In addition, the logD in data set [3] (setting [7]) turned out to be 3. Moreover, the solubility at 24 h in data set [4] (setting [8]) amounted to 441 µM (≈ 232 µg/mL). Besides, the “Human plasma protein binding (% free)” value in data set [5] turned out to be 1.3 % free.

For `C[C@@H]1Cc2c([nH]c3ccc(F)cc23)[C@@H](c2c(F)cnc(OCCN(C)CCCF)c2F)N1CC(F)(F)CO` [Example 67, 3-((1R,3R)-1-(3,5-difluoro-2-(2-((3-fluoropropyl)(methyl)amino)ethoxy)pyridin-4-yl)-6-fluoro-3-methyl-1,3,4,9-tetrahydro-2H-pyrido[3,4-b]indol-2-yl)-2,2-difluoropropan-1-ol], the 50% inhibitory concentration (IC50) in data set [1] is 0.7 nM; in data set [2] it was 0.099 nM; in data set [6] it was 5700 nM. Moreover, the logD in data set [3] (setting [7]) turned out to be 4. Moreover, the solubility at 24 h in data set [4] (setting [8]) was 80.6 µM (≈ 43.9 µg/mL). The “Human plasma protein binding (% free)” value in data set [5] was determined as 1.6 % free.

As to `C[C@@H]1Cc2c([nH]c3ccccc23)[C@@H](c2cccc(OCCNCCCF)c2C(F)F)N1CC(F)(F)CO` [Example 68, 3-((1R,3R)-1-(2-(difluoromethyl)-3-(2-((3-fluoropropyl)amino)ethoxy)phenyl)-3-methyl-1,3,4,9-tetrahydro-2H-pyrido[3,4-b]indol-2-yl)-2,2-difluoropropan-1-ol], the IC50 came to 0.69 nM in data set [1], 0.095 nM in data set [2] and 2000 nM in data set [6]. The compound also gave a logD in data set [3] (setting [7]) of 3.2. Also, the solubility at 24 h in data set [4] (setting [8]) was found to be 56.6 µM (≈ 29.7 µg/mL). Besides, in data set [5], the “Human plasma protein binding (% free)” value is reported as 1.2 % free.

For `C[C@@H]1Cc2c([nH]c3ccccc23)[C@@H](c2cc(OCCNCCCF)ccc2CO)N1CC(F)(F)F` [Example 70, (4-(2-((3-fluoropropyl)amino)ethoxy)-2-((1R,3R)-3-methyl-2-(2,2,2-trifluoroethyl)-2,3,4,9-tetrahydro-1H-pyrido[3,4-b]indol-1-yl)phenyl)methanol], the IC50 turned out to be 1300 nM in data set [1], 180 nM in data set [2] and 6300 nM in data set [6]. Moreover, the logD in data set [3] (setting [7]) turned out to be 2.2. The same compound gave a solubility at 24 h in data set [4] (setting [8]) of 231 µM (≈ 114 µg/mL). Besides, the “Human plasma protein binding (% free)” value in data set [5] is recorded as 23 % free.

In the case of `COCc1ccc(OCCNCCCF)cc1[C@@H]1c2[nH]c3ccccc3c2C[C@@H](C)N1CC(F)(F)F` [Example 71, 3-fluoro-N-(2-(4-(methoxymethyl)-3-((1R,3R)-3-methyl-2-(2,2,2-trifluoroethyl)-2,3,4,9-tetrahydro-1H-pyrido[3,4-b]indol-1-yl)phenoxy)ethyl)propan-1-amine], the IC50 in data set [1] came to 3.4 nM; in data set [2], 2 nM; in data set [6] it was 5800 nM. Further, the “% downregulation (in brackets)” value in data set [2] amounted to 90%. The compound also came in with a logD in data set [3] (pH 7.4) of 3.8. Besides, the solubility at 24 h in data set [4] (aqueous buffer, 25° C.) was less than 1.6 µM. Further, the “Human plasma protein binding (% free)” value in data set [5] turned out to be 0.44 % free.

As to `C[C@@H]1Cc2c([nH]c3ccccc23)[C@@](C)(c2cccc(OCCNCCCF)c2)N1CC(F)(F)F` [Example 75, N-(2-(3-((1R,3R)-1,3-dimethyl-2-(2,2,2-trifluoroethyl)-2,3,4,9-tetrahydro-1H-pyrido[3,4-b]indol-1-yl)phenoxy)ethyl)-3-fluoropropan-1-amine], the results for the half-maximal inhibitory concentration (IC50) in data set [1], in data set [2] and in data set [6] were 52 nM, 58 nM and 7700 nM, respectively. This compound also displayed a logD in data set [3] (setting [7]) of 4.5. In data set [4] (setting [8]), this compound showed a solubility at 24 h of 0.9 µM (≈ 0.43 µg/mL). Also, the “Human plasma protein binding (% free)” value in data set [5] turned out to be 0.08 % free.
